Data taken from the NIST ThermoML archive (doi:10.1016/j.tca.2013.09.017).
Numbers after ± are expanded uncertainties. Values belong to the compound of their own block, whether it stands above or below them.

Legend:
[1] = mn = molality of the nth substance listed, in mol/kg; details: 298.15 K, 101 kPa, Liquid; for speed of sound: Sing-around technique in a fixed-path interferometer; for mass density: Vibrating tube method
[2] = 298.15 K, 101.33 kPa, Liquid; for speed of sound: Sing-around technique in a fixed-path interferometer; for mass density: Vibrating tube method

speed of sound ([1]; m1 = 0.0846): 1243 ± 1 m/s
speed of sound ([1]; m1 = 0.1506): 1244.6 ± 1 m/s
speed of sound ([1]; m1 = 0.23): 1245.8 ± 1 m/s
speed of sound ([1]; m1 = 0.2953): 1247.7 ± 1 m/s
speed of sound ([1]; m1 = 0.3712): 1249.6 ± 1 m/s
mass density ([1]; m1 = 0.0846): 807.27 ± 0.15 kg/m3
mass density ([1]; m1 = 0.1506): 808.43 ± 0.15 kg/m3
mass density ([1]; m1 = 0.23): 809.82 ± 0.15 kg/m3
mass density ([1]; m1 = 0.2953): 810.94 ± 0.14 kg/m3
mass density ([1]; m1 = 0.3712): 812.24 ± 0.14 kg/m3
Compound: CN1CCCC1=O [N-methylpyrrolidone] + CCCCO

speed of sound [2]: 1131.4 ± 0.92 m/s
mass density [2]: 679.51 ± 0.21 kg/m3
Compound: CCCCCCC [heptane]

speed of sound [2]: 1240.5 ± 0.97 m/s
mass density [2]: 805.72 ± 0.15 kg/m3
Compound: CCCCO [butan-1-ol]

speed of sound ([1]; m1 = 0.0621): 1500.7 ± 1.1 m/s
speed of sound ([1]; m1 = 0.1225): 1504.4 ± 1.1 m/s
speed of sound ([1]; m1 = 0.1806): 1507.8 ± 1.1 m/s
speed of sound ([1]; m1 = 0.2399): 1511.4 ± 1.1 m/s
speed of sound ([1]; m1 = 0.3036): 1515.1 ± 1.1 m/s
mass density ([1]; m1 = 0.0621): 997.34 ± 0.07 kg/m3
mass density ([1]; m1 = 0.1225): 997.63 ± 0.07 kg/m3
mass density ([1]; m1 = 0.1806): 997.92 ± 0.07 kg/m3
mass density ([1]; m1 = 0.2399): 998.21 ± 0.07 kg/m3
mass density ([1]; m1 = 0.3036): 998.54 ± 0.07 kg/m3
Compound: CN1CCCC1=O [N-methylpyrrolidone] + O

speed of sound [2]: 1103.4 ± 0.91 m/s
mass density [2]: 786.66 ± 0.16 kg/m3
Compound: CO [methanol]

speed of sound [2]: 1255 ± 0.97 m/s
mass density [2]: 773.82 ± 0.16 kg/m3
Compound: C1CCCCC1 [cyclohexane]

speed of sound ([1]; m1 = 0.0786): 1106.3 ± 0.9 m/s
speed of sound ([1]; m1 = 0.1588): 1109 ± 0.9 m/s
speed of sound ([1]; m1 = 0.2275): 1111.2 ± 0.9 m/s
speed of sound ([1]; m1 = 0.3082): 1114 ± 0.9 m/s
speed of sound ([1]; m1 = 0.3854): 1116.6 ± 0.9 m/s
mass density ([1]; m1 = 0.0786): 788.33 ± 0.16 kg/m3
mass density ([1]; m1 = 0.1588): 789.97 ± 0.15 kg/m3
mass density ([1]; m1 = 0.2275): 791.35 ± 0.15 kg/m3
mass density ([1]; m1 = 0.3082): 792.96 ± 0.15 kg/m3
mass density ([1]; m1 = 0.3854): 794.5 ± 0.15 kg/m3
Compound: CN1CCCC1=O [N-methylpyrrolidone] + CO

speed of sound ([1]; m1 = 0.077): 1146.8 ± 0.9 m/s
speed of sound ([1]; m1 = 0.1554): 1149.3 ± 0.9 m/s
speed of sound ([1]; m1 = 0.2349): 1151.9 ± 0.9 m/s
speed of sound ([1]; m1 = 0.3089): 1154 ± 0.9 m/s
speed of sound ([1]; m1 = 0.388): 1156.5 ± 0.9 m/s
mass density ([1]; m1 = 0.077): 786.74 ± 0.16 kg/m3
mass density ([1]; m1 = 0.1554): 788.32 ± 0.16 kg/m3
mass density ([1]; m1 = 0.2349): 789.86 ± 0.15 kg/m3
mass density ([1]; m1 = 0.3089): 791.28 ± 0.15 kg/m3
mass density ([1]; m1 = 0.388): 792.78 ± 0.15 kg/m3
Compound: CN1CCCC1=O [N-methylpyrrolidone] + CCO

speed of sound [2]: 1145.2 ± 0.93 m/s
mass density [2]: 785.22 ± 0.16 kg/m3
Compound: CCO [ethanol]

speed of sound ([1]; m1 = 0.0757): 1209.1 ± 1 m/s
speed of sound ([1]; m1 = 0.1611): 1211.6 ± 1 m/s
speed of sound ([1]; m1 = 0.2275): 1213.4 ± 1 m/s
speed of sound ([1]; m1 = 0.3064): 1215.6 ± 1 m/s
speed of sound ([1]; m1 = 0.381): 1217.6 ± 1 m/s
mass density ([1]; m1 = 0.0757): 801.03 ± 0.15 kg/m3
mass density ([1]; m1 = 0.1611): 802.58 ± 0.15 kg/m3
mass density ([1]; m1 = 0.2275): 803.78 ± 0.15 kg/m3
mass density ([1]; m1 = 0.3064): 805.2 ± 0.15 kg/m3
mass density ([1]; m1 = 0.381): 806.51 ± 0.15 kg/m3
Compound: CN1CCCC1=O [N-methylpyrrolidone] + CCCO

speed of sound [2]: 1206.7 ± 0.95 m/s
mass density [2]: 799.58 ± 0.15 kg/m3
Compound: CCCO [propan-1-ol]

Second part, the compound before the results:

Compound: CCC(=O)N(C)C [N,N-dimethylpropionamide] + CO
speed of sound ([1]; m1 = 0.0618): 1105 ± 0.9 m/s
speed of sound ([1]; m1 = 0.1442): 1107 ± 0.9 m/s
speed of sound ([1]; m1 = 0.2317): 1109.6 ± 0.9 m/s
speed of sound ([1]; m1 = 0.3264): 1112 ± 0.9 m/s
speed of sound ([1]; m1 = 0.4233): 1114.7 ± 0.9 m/s
mass density ([1]; m1 = 0.0618): 787.53 ± 0.16 kg/m3
mass density ([1]; m1 = 0.1442): 788.62 ± 0.16 kg/m3
mass density ([1]; m1 = 0.2317): 789.76 ± 0.15 kg/m3
mass density ([1]; m1 = 0.3264): 790.9 ± 0.15 kg/m3
mass density ([1]; m1 = 0.4233): 792.14 ± 0.15 kg/m3

Compound: CCC(=O)N(C)C [N,N-dimethylpropionamide] + CCCCO
speed of sound ([1]; m1 = 0.0494): 1241.7 ± 1 m/s
speed of sound ([1]; m1 = 0.1311): 1243.2 ± 1 m/s
speed of sound ([1]; m1 = 0.21): 1244.6 ± 1 m/s
speed of sound ([1]; m1 = 0.2899): 1246.1 ± 1 m/s
speed of sound ([1]; m1 = 0.3702): 1247.5 ± 1 m/s
mass density ([1]; m1 = 0.0494): 806.25 ± 0.15 kg/m3
mass density ([1]; m1 = 0.1311): 807.08 ± 0.15 kg/m3
mass density ([1]; m1 = 0.21): 807.88 ± 0.15 kg/m3
mass density ([1]; m1 = 0.2899): 808.68 ± 0.15 kg/m3
mass density ([1]; m1 = 0.3702): 809.48 ± 0.15 kg/m3

Compound: CN1CCCC1=O [N-methylpyrrolidone] + C1CCCCC1
speed of sound ([1]; m1 = 0.0792): 1256 ± 1 m/s
speed of sound ([1]; m1 = 0.1648): 1256.8 ± 1 m/s
speed of sound ([1]; m1 = 0.2385): 1257.6 ± 1 m/s
speed of sound ([1]; m1 = 0.3142): 1258.3 ± 1 m/s
speed of sound ([1]; m1 = 0.3925): 1258.7 ± 1 m/s
mass density ([1]; m1 = 0.0792): 774.81 ± 0.16 kg/m3
mass density ([1]; m1 = 0.1648): 776.26 ± 0.16 kg/m3
mass density ([1]; m1 = 0.2385): 777.5 ± 0.16 kg/m3
mass density ([1]; m1 = 0.3142): 778.77 ± 0.16 kg/m3
mass density ([1]; m1 = 0.3925): 780.08 ± 0.16 kg/m3

Compound: CCC(=O)N(C)C [N,N-dimethylpropionamide] + O
speed of sound ([1]; m1 = 0.0588): 1501.1 ± 1.1 m/s
speed of sound ([1]; m1 = 0.1486): 1508.1 ± 1.1 m/s
speed of sound ([1]; m1 = 0.2471): 1515.7 ± 1.1 m/s
speed of sound ([1]; m1 = 0.3518): 1522 ± 1.1 m/s
speed of sound ([1]; m1 = 0.4457): 1528.2 ± 1.1 m/s
mass density ([1]; m1 = 0.0588): 996.85 ± 0.07 kg/m3
mass density ([1]; m1 = 0.1486): 996.53 ± 0.07 kg/m3
mass density ([1]; m1 = 0.2471): 996.2 ± 0.08 kg/m3
mass density ([1]; m1 = 0.3518): 995.95 ± 0.08 kg/m3
mass density ([1]; m1 = 0.4457): 995.72 ± 0.08 kg/m3

Compound: CN1CCCC1=O [N-methylpyrrolidone] + CCCCCCC
speed of sound ([1]; m1 = 0.0859): 1133.1 ± 0.9 m/s
speed of sound ([1]; m1 = 0.1879): 1135 ± 0.9 m/s
speed of sound ([1]; m1 = 0.2695): 1136.4 ± 0.9 m/s
speed of sound ([1]; m1 = 0.3576): 1137.7 ± 0.9 m/s
speed of sound ([1]; m1 = 0.4488): 1139.2 ± 0.9 m/s
mass density ([1]; m1 = 0.0859): 681.45 ± 0.21 kg/m3
mass density ([1]; m1 = 0.1879): 683.75 ± 0.21 kg/m3
mass density ([1]; m1 = 0.2695): 685.56 ± 0.2 kg/m3
mass density ([1]; m1 = 0.3576): 687.51 ± 0.2 kg/m3
mass density ([1]; m1 = 0.4488): 689.49 ± 0.2 kg/m3

Compound: CN1CCCC1=O [N-methylpyrrolidone]
speed of sound [2]: 1545.2 ± 1.1 m/s
mass density [2]: 1028.01 ± 0.08 kg/m3

Compound: CCC(=O)N(C)C [N,N-dimethylpropionamide] + CCO
speed of sound ([1]; m1 = 0.0587): 1146.6 ± 0.9 m/s
speed of sound ([1]; m1 = 0.1486): 1148.1 ± 0.9 m/s
speed of sound ([1]; m1 = 0.2471): 1150.7 ± 0.9 m/s
speed of sound ([1]; m1 = 0.3517): 1153.2 ± 0.9 m/s
speed of sound ([1]; m1 = 0.4456): 1155.3 ± 0.9 m/s
mass density ([1]; m1 = 0.0587): 785.99 ± 0.16 kg/m3
mass density ([1]; m1 = 0.1486): 787.09 ± 0.16 kg/m3
mass density ([1]; m1 = 0.2471): 788.4 ± 0.16 kg/m3
mass density ([1]; m1 = 0.3517): 789.6 ± 0.15 kg/m3
mass density ([1]; m1 = 0.4456): 790.79 ± 0.15 kg/m3

Compound: CCC(=O)N(C)C [N,N-dimethylpropionamide]
speed of sound [2]: 1425.4 ± 1.2 m/s
mass density [2]: 921.16 ± 0.19 kg/m3

Compound: CCC(=O)N(C)C [N,N-dimethylpropionamide] + CCCCCCC
speed of sound ([1]; m1 = 0.0487): 1132.3 ± 0.9 m/s
speed of sound ([1]; m1 = 0.1515): 1133.4 ± 0.9 m/s
speed of sound ([1]; m1 = 0.2686): 1135.1 ± 0.9 m/s
speed of sound ([1]; m1 = 0.3627): 1136.2 ± 0.9 m/s
speed of sound ([1]; m1 = 0.4628): 1137.5 ± 0.9 m/s
mass density ([1]; m1 = 0.0487): 680.32 ± 0.21 kg/m3
mass density ([1]; m1 = 0.1515): 681.98 ± 0.21 kg/m3
mass density ([1]; m1 = 0.2686): 683.9 ± 0.21 kg/m3
mass density ([1]; m1 = 0.3627): 685.47 ± 0.2 kg/m3
mass density ([1]; m1 = 0.4628): 687.09 ± 0.2 kg/m3

Compound: CCC(=O)N(C)C [N,N-dimethylpropionamide] + C1CCCCC1
speed of sound ([1]; m1 = 0.05): 1254.7 ± 1 m/s
speed of sound ([1]; m1 = 0.1518): 1254.7 ± 1 m/s
speed of sound ([1]; m1 = 0.2497): 1254.8 ± 1 m/s
speed of sound ([1]; m1 = 0.355): 1254.9 ± 1 m/s
speed of sound ([1]; m1 = 0.4496): 1255 ± 1 m/s
mass density ([1]; m1 = 0.05): 773.91 ± 0.16 kg/m3
mass density ([1]; m1 = 0.1518): 774.79 ± 0.16 kg/m3
mass density ([1]; m1 = 0.2497): 775.68 ± 0.16 kg/m3
mass density ([1]; m1 = 0.355): 776.64 ± 0.16 kg/m3
mass density ([1]; m1 = 0.4496): 777.52 ± 0.16 kg/m3

Compound: CCC(=O)N(C)C [N,N-dimethylpropionamide] + CCCO
speed of sound ([1]; m1 = 0.0515): 1207.9 ± 1 m/s
speed of sound ([1]; m1 = 0.1316): 1209.6 ± 1 m/s
speed of sound ([1]; m1 = 0.2061): 1211.2 ± 1 m/s
speed of sound ([1]; m1 = 0.2845): 1212.9 ± 1 m/s
speed of sound ([1]; m1 = 0.3632): 1214.5 ± 1 m/s
mass density ([1]; m1 = 0.0515): 800.16 ± 0.15 kg/m3
mass density ([1]; m1 = 0.1316): 801.03 ± 0.15 kg/m3
mass density ([1]; m1 = 0.2061): 801.84 ± 0.15 kg/m3
mass density ([1]; m1 = 0.2845): 802.68 ± 0.15 kg/m3
mass density ([1]; m1 = 0.3632): 803.51 ± 0.15 kg/m3
